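In this assay, cells in 96-well plates receive the compound at five concentrations for 48 hours. Endpoints are linearly interpolated between the surrounding concentrations. Abbreviation: GI50, concentration required for 50% inhibition of growth.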 The source made the active and inactive calls. No stated cut-off is given here; in the data, active = GI50 up to about 1.1 µM and inactive = higher.
Columns and labels:
Test in all cases: NCI anticancer screen, dose series, 48 h
SN12C = system: SN12C
NCI-H460 = system: NCI-H460
U-251 = system: U-251
TK-10 = system: TK-10
UO-31 = system: UO-31
SK-OV-3 = system: SK-OV-3
HL-60 = system: HL-60
IGROV-1 = system: IGROV-1
NCI/ADR-RES = system: NCI/ADR-RES
NCI-H522 = system: NCI-H522
RXF 393 = system: RXF 393
EKVX = system: EKVX
NCI-H226 = system: NCI-H226
MDA-MB-231 = system: MDA-MB-231
HOP-92 = system: HOP-92
SK-MEL-2 = system: SK-MEL-2
HT-29 = system: HT-29
Hs-578T = system: Hs-578T
A498 = system: A498

Measured: GI50

Nc1ccc(-c2cssc2=S)cc1
inactive: SN12C 31.1 µM | NCI-H460 33.9 µM | U-251 40.7 µM | TK-10 40.6 µM | UO-31 35.9 µM | SK-OV-3 44.6 µM | HL-60 18.6 µM | IGROV-1 50.7 µM | NCI/ADR-RES 41.9 µM | NCI-H522 26.9 µM | RXF 393 29.8 µM | EKVX 41.6 µM | NCI-H226 56.5 µM | MDA-MB-231 39.3 µM | HOP-92 56.2 µM | SK-MEL-2 27.1 µM | HT-29 51.9 µM | Hs-578T 36.3 µM

O=c1[nH]n(Cc2ccccc2)c2ccc([N+](=O)[O-])cc12
inactive: SN12C 49.5 µM | NCI-H460 40.6 µM | U-251 49.8 µM | TK-10 > 100 µM | UO-31 45.5 µM | SK-OV-3 15.7 µM | HL-60 33.8 µM | IGROV-1 84.3 µM | NCI/ADR-RES 34.8 µM | NCI-H522 65.5 µM | RXF 393 71.9 µM | EKVX > 100 µM | NCI-H226 > 100 µM | MDA-MB-231 28.7 µM | HOP-92 55.8 µM | SK-MEL-2 47.8 µM | HT-29 41.2 µM | Hs-578T 35.2 µM | A498 47.3 µM

CC(C)(C)c1ccc2c(c1)S(=O)(=O)Nc1cccc(c1)NS(=O)(=O)c1cc(C(C)(C)C)ccc1OCCOCCO2
inactive: SN12C > 100 µM | NCI-H460 > 100 µM | U-251 > 100 µM | TK-10 > 100 µM | UO-31 > 100 µM | SK-OV-3 > 100 µM | IGROV-1 > 100 µM | RXF 393 6.49 µM | EKVX > 100 µM | NCI-H226 > 100 µM | HOP-92 50.6 µM | SK-MEL-2 > 100 µM | HT-29 > 100 µM | A498 > 100 µM

Cn1c(=O)c2nc3sc4ccccc4c(=N)n3c2n(C)c1=O
inactive: SN12C > 100 µM | NCI-H460 > 100 µM | U-251 > 10 µM | TK-10 > 100 µM | UO-31 > 100 µM | SK-OV-3 > 100 µM | HL-60 > 100 µM | IGROV-1 > 100 µM | NCI-H522 > 100 µM | RXF 393 > 100 µM | EKVX > 100 µM | NCI-H226 25.1 µM | HOP-92 > 100 µM | SK-MEL-2 > 100 µM | HT-29 > 100 µM | A498 > 100 µM

O=C(CNc1ccccc1Cl)Nn1c(-c2ccccc2)nc2ccccc2c1=O
inactive: SN12C 34.4 µM | NCI-H460 78.5 µM | U-251 17.4 µM | TK-10 44 µM | UO-31 47.1 µM | SK-OV-3 38.1 µM | HL-60 22.4 µM | IGROV-1 23.7 µM | NCI-H522 > 10 µM | RXF 393 20.3 µM | EKVX 18.6 µM | NCI-H226 28.5 µM | MDA-MB-231 > 10 µM | HOP-92 13.4 µM | HT-29 > 10 µM | Hs-578T 25.6 µM | A498 49.8 µM

O=C1CCCC(O)=C1SC1=C(O)CCCC1=O
inactive: SN12C 74 µM | U-251 > 100 µM | TK-10 > 100 µM | UO-31 98.2 µM | SK-OV-3 > 100 µM | HL-60 > 100 µM | IGROV-1 > 100 µM | NCI-H522 > 100 µM | RXF 393 > 100 µM | EKVX > 100 µM | NCI-H226 > 100 µM | HOP-92 > 100 µM | SK-MEL-2 > 100 µM | HT-29 72.8 µM | A498 39.2 µM

COc1ccc2c3ccc4c(c3n(C)c2c1)C(=O)C=CC4=O
inactive: SN12C 40.4 µM | U-251 > 100 µM | UO-31 20.5 µM | SK-OV-3 > 100 µM | HL-60 3.84 µM | IGROV-1 > 100 µM | NCI-H522 10.4 µM | RXF 393 18.4 µM | EKVX 72.8 µM | NCI-H226 > 100 µM | HOP-92 14.1 µM | HT-29 > 100 µM | A498 > 100 µM

O=[N+]([O-])c1cccc(-c2oc(/C=N/c3ccccc3)c([N+](=O)[O-])c2-c2cccc([N+](=O)[O-])c2)c1
inactive: NCI-H460 > 100 µM | U-251 > 100 µM | TK-10 > 100 µM | UO-31 > 100 µM | SK-OV-3 > 100 µM | HL-60 > 100 µM | IGROV-1 > 100 µM | NCI-H522 > 100 µM | RXF 393 > 100 µM | EKVX > 100 µM | NCI-H226 > 100 µM | HOP-92 > 100 µM | SK-MEL-2 > 100 µM | HT-29 > 100 µM | A498 > 100 µM

O=C(/C=C/c1ccccc1O)C(c1ccccc1)c1ccccc1
inactive: SN12C > 100 µM | NCI-H460 > 100 µM | U-251 > 100 µM | TK-10 > 100 µM | UO-31 > 100 µM | SK-OV-3 > 100 µM | IGROV-1 > 100 µM | NCI-H522 65.6 µM | RXF 393 > 100 µM | EKVX > 100 µM | NCI-H226 > 100 µM | HOP-92 > 100 µM | SK-MEL-2 > 100 µM | HT-29 > 100 µM | A498 > 100 µM

CS(=O)(=O)C1S(=O)(=O)OCCOS1(=O)=O
inactive: SN12C > 100 µM | NCI-H460 > 100 µM | U-251 > 100 µM | TK-10 > 100 µM | UO-31 > 100 µM | SK-OV-3 > 100 µM | HL-60 > 100 µM | IGROV-1 > 100 µM | NCI-H522 > 100 µM | RXF 393 > 100 µM | EKVX > 100 µM | NCI-H226 7.93 µM | HOP-92 > 100 µM | HT-29 > 100 µM | A498 > 100 µM

O=c1[nH]nc(-c2ccccc2)n1/N=C/c1c(O)ccc2ccccc12
inactive: SN12C 45.3 µM | U-251 26.1 µM | TK-10 38.4 µM | UO-31 36 µM | SK-OV-3 28.2 µM | IGROV-1 > 100 µM | NCI/ADR-RES 30.3 µM | NCI-H522 91.2 µM | RXF 393 23.8 µM | EKVX > 100 µM | MDA-MB-231 83.6 µM | HOP-92 34.2 µM | SK-MEL-2 62.7 µM | HT-29 86.5 µM | Hs-578T 14.1 µM

Cc1c(-c2ccccc2)[nH]c2cn[nH]c(=O)c12
inactive: NCI-H460 > 100 µM | U-251 > 100 µM | TK-10 > 100 µM | UO-31 80 µM | SK-OV-3 42.5 µM | HL-60 10.7 µM | IGROV-1 > 100 µM | NCI/ADR-RES 73.8 µM | NCI-H522 86.1 µM | EKVX 34.6 µM | MDA-MB-231 > 100 µM | HOP-92 > 100 µM | SK-MEL-2 90.8 µM | HT-29 > 100 µM | Hs-578T 74.6 µM | A498 > 100 µM

Source: ChEMBL document CHEMBL1201862, “PubChem BioAssay data set” (2004)
